The results in this text go back to US10766873B2, “Zuclopenthixol hydrochloride derivatives and Ebselen derivatives as ErbB2 inhibitors” (Centre National de la Recherche Scientifique (CNRS), priority 2016, dated 2020).

The test system of one data set is MDA-MB-231. Put plainly: MTT cell proliferation, MDA-MB-231. Format: cell-based. The note with it: 10 μM. As for the experimental part:
We then analyzed the ability of ZU and EB1 and their derivatives to decrease the ErbB2-dependent cell proliferation.
SKBR3, BT474, MCF-7, MDA-MB-231 and HBMEC cells were treated with the compounds as indicated, and cell proliferation was determined each day during 3 days using an MTT assay. Non treated cells were included as a negative control.
The ErbB2-overexpressing gastric cancer cell line N87 and MDAMB-231, a non ErbB2-overexpressing breast cancer cell line were treated with 3, 5 or 7 μM of ZU and cell proliferation was determined each day during 3 days using an MTT assay. Non treated cells were included as a negative control.
The ErbB2-overexpressing ovarian cancer cell line SKOV3 and MDAMB-231, a non ErbB2-overexpressing breast cancer cell line were treated with 3, 5 or 7 μM of ZU and cell proliferation was determined each day during 3 days using an MTT assay. Non treated cells were included as a negative control.

In a further data set the target is T1, FERM/CD44 interaction (Homo sapiens, UniProt P16070).
T1 construct: the juxtamembrane region of CD44 (biotin-[…]); made in house
Briefly: AlphaScreen counter screen, FERM/CD44 interaction. Format: binding. The note with it: 1 h. From the text: To validate that the Zuclopenthixol hydrochloride (ZU) and its derivatives interact with the juxtamembrane domain of ErbB2, we first analyzed in AlphaScreen® their efficiency to inhibit FERM/ErbB2 interaction in a dose-dependent manner and determined IC50 value. Furthermore, to test the selectivity of those compounds, we tested their ability to disrupt the interaction between the FERM domain and the known ERM binding motif contained in the juxtamembrane region of CD44 as a control.
AlphaScreen® technology was used to assess the interaction between the Ezrin binding motif (EBM) contained in the juxtamembrane portions of ErbB2 or CD44 with the Ezrin FERM domain. For this purpose the Ezrin FERM domain in fusion with Glutathione-S-Transferase (GST) has been coupled to GSH-coated acceptor beads. Biotinylated ErbB2 peptide encoding the Ezrin binding motif (amino acid 674 to 689: biotin-[…], 26 aa) or the juxtamembrane region of CD44 (biotin-[…]), for the counter screen have been synthesized and coupled to streptavidin-covered donor beads. […]
The reaction was performed using white 384-well Optiplates (PerkinElmer, Whalham, Mass., USA) in 20 μl (total reaction volume) in a reaction buffer containing PBS, pH 7.4, 5 mM MgCl2 and 0.02% CHAPS. […] Light signal was detected with the EnVision® multilabel plate reader (PerkinElmer). […]
Background: Bead proximity is the source of the signal in Alpha formats.

In data set [1] the test system is V842I ErbB2-transfected cells. Briefly: MTT cell proliferation, V842I ErbB2-transfected HBMEC. Format: cell-based. Conditions: day 3. As to the method: (§1) The WT, V777L or V842I ErbB2-transfected cells were treated with 5 or 10 μM of ZU and cell proliferation was determined each day during 3 days using an MTT assay. Non transfected cells were included as a negative control.
(§2) The WT, V777L or V842I ErbB2-transfected cells were treated with 5 or 10 μM of EB1 and cell proliferation was determined each day during 3 days using an MTT assay. Non transfected cells were included as a negative control.

In data set [2] the test system is WT ErbB2-transfected cells. Briefly: MTT cell proliferation, WT ErbB2-transfected HBMEC. Format: cell-based. The note with it: day 3. As for the experimental part: as §1, §2
The test system of data set [3] is EGFR/ErBB2 or ErbB3/ErbB2 heterodimers-dependent signalling pathways. Put plainly: Ligand-dependent ErbB2 activation (EGF or HRG) in HBMECs, western blot. The data set is classed as cell-based. Conditions: pre-treatment 1 h or 24 h. As to the method: In physiological conditions, ErbB2 activation occurs in heterodimer with the other ErbB family members, such as the EGFR in response to EGF stimulation or ErbB3 in response to heregulin (HRG) stimulation. We therefore addressed whether ZU, EB1 and their derivatives also affected the ligand-dependent physiological ErbB2 activation.
16 h-starved HBMECs cells were pre-treated or not for 1 h or 24 h with ZU, […] and their derivatives or AG1478 before EGF (50 ng/mL) or HRG1β (100 ng/mL) stimulation for 5 minutes. The activation of EGFR/ErBB2 or ErbB3/ErbB2 heterodimers-dependent signalling pathways was then analysed by western blot experiments using pAkt, Akt, pERK, ERK or 4G10 antibodies.
In general terms: Immunoblotting shows a protein as a band on a membrane.

Data set [4] has as its system V777L ErbB2-transfected cells. Put plainly: MTT cell proliferation, V777L ErbB2-transfected HBMEC. Format: cell-based. Conditions: day 3. As to the method:
as §1, §2

Data set [5] has as its system human breast cancer BT474 cells. Put plainly: BT474 orthotopic xenograft in mammary fat pad of mice. Format: in vivo, NOD.Cg-Prkdc scid/J mice. Conditions: for tumor growth in vivo (in words): then once per day 3 days. As for the experimental part: 5.10^6 BT474 cells were implanted orthotopically in the mammary fat pad of NOD.Cg-Prkdc scid/J mice, in the presence of estradiol supplement. After 4 weeks, mice were injected with ZU (N=10, 5 mg/kg per day for 5 days a week, followed by 3 mg/kg for 5 days a week during three weeks for N=6) or vehicle (N=10, 10% DMSO in PBS). Mice weight and tumor volume were measured 3 and 2 times a week respectively.
5.10^6 BT474 cells were implanted orthotopically in the mammary fat pad of NOD.Cg-Prkdc scid/J mice, in the presence of estradiol supplement. Nineteen days after implantation, treatment began and mice were injected i.p. with […] ZU (5 mg/kg per day for 3 days a week, during three weeks for N=9), 4 mg/kg ZU (5 days a week during three weeks, N=8) or vehicle (N=9, 10% DMSO in PBS). Mice weight and tumor volume were measured 3 and 2 times a week respectively.
5.10^6 BT474 cells were implanted orthotopically in the mammary fat pad of NOD.Cg-Prkdc scid/J mice, in the presence of estradiol supplement. After 4 weeks, mice were injected with EB1 3 mg/kg (N=8), 5 mg/kg (N=6) or vehicle (N=8, 10% DMSO in PBS) twice a day for 5 days a week (2×D), during 2 weeks then once per day (1×D) during 3 days. Mice weight and tumor volume were measured 3 and 2 times a week respectively.

Consider `O=C1c2ccccc2[Se](=O)N1c1ccccc1` (stereo not drawn) [EB1, Ebselen oxide], for which the “effect on MDA-MB-231 proliferation (in words)” value with MDA-MB-231 was “without any effect”. The “effect on FERM/CD44 interaction” value at FERM/CD44 interaction is “without significantly altering FERM/CD44 interaction at low doses”. Moreover, the entries for the “decrease of the proliferation of V842I transfected HBMEC” value in data set [1] (5 μM) and in data set [1] (10 μM) were 55% and 90%, respectively. Besides, the “decrease of the proliferation of WT transfected HBMEC” value was determined as 60% in data set [2] (5 μM) and 95% in data set [2] (10 μM). For the same compound, the “ligand-dependent ErbB2 activation induced by EGF or HRG stimulation (in words)” value in data set [3] was “absence of inhibition”. The “decrease of the proliferation of V777L transfected HBMEC” value in data set [4] (5 μM) was 70%; in data set [4] (10 μM), 85%. The “tumor growth in vivo (in words)” value was “able to decrease the tumor growth” in data set [5] (3 mg/kg twice a day 5 days a week 2 weeks); “more significant” in data set [5] (5 mg/kg twice a day 5 days a week 2 weeks, tumor volume and tumor weight). In addition, the “tolerability in mice, body weight (in words)” value in data set [5] (3 or 5 mg/kg) is on record as “well tolerated”.
